Measured values: PubChem BioAssay (NCI)
Values joined by “and” are separate entries in the source; they are usually repeats but may differ in a detail not shown here. Equal values may be shown once.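 96-well plates; 48 h exposure; 5 concentrations. Endpoints by linear interpolation between flanking doses. Not reached: highest tested concentration assigned. GI50 marks 50% less growth. The concentration for full growth arrest is given as TGI.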 *1 amine or outer side, *2 acyl side, *3 side chain or, on linkers, in order; H or OH if unused. Where a SMILES comes first, the peptide text is derived from it. Bridges are numbered along the chain shown (N, C = ends). Roman numbers before positions name the chains, in order. [ ]: non-standard residue; d: D form. Actinocin(9to1) = Cc1c2oc3c(C)ccc(C(=O)[*:1])c3nc-2c(C(=O)[*:2])c(N)c1=O; NMeT = CN[CH](C(=O)O)[CH](C)O; Sar = CNCC(=O)O

Assays:
Experiment in all cases: NCI-60 cell line screen, 48 h
CAKI-1 renal = test system: CAKI-1 renal
HL-60(TB) leukemia = test system: HL-60(TB) leukemia
HS 578T breast = test system: HS 578T breast
MOLT-4 leukemia = test system: MOLT-4 leukemia
NCI-H23 lung = test system: NCI-H23 lung
OVCAR-3 ovarian = test system: OVCAR-3 ovarian
RPMI-8226 leukemia = test system: RPMI-8226 leukemia
SN12C renal = test system: SN12C renal
T-47D breast = test system: T-47D breast
UO-31 renal = test system: UO-31 renal

| SMILES | TGI (CAKI-1 renal) | TGI (HL-60(TB) leukemia) | TGI (HS 578T breast) | TGI (MOLT-4 leukemia) | TGI (NCI-H23 lung) | TGI (OVCAR-3 ovarian) | TGI (RPMI-8226 leukemia) | TGI (SN12C renal) | TGI (T-47D breast) | TGI (UO-31 renal) | GI50 (CAKI-1 renal) | GI50 (HL-60(TB) leukemia) | GI50 (HS 578T breast) | GI50 (MOLT-4 leukemia) | GI50 (NCI-H23 lung) | GI50 (OVCAR-3 ovarian) | GI50 (RPMI-8226 leukemia) | GI50 (SN12C renal) | GI50 (T-47D breast) | GI50 (UO-31 renal) |
| --- | --- | --- | --- | --- | --- | --- | --- | --- | --- | --- | --- | --- | --- | --- | --- | --- | --- | --- | --- | --- |
| Cc1cc(=O)oc2c(C)c(O)ccc12 | > 100 µM | > 100 µM | > 100 µM | > 100 µM | > 100 µM | > 100 µM | > 100 µM | > 100 µM | > 100 µM | > 100 µM | – | – | – | – | – | – | – | – | – | – |
| COc1ccc(NC([Se])=NC23CC4CC(CC(C4)C2)C3)cc1 | 10.2 µM | 5.91 µM | 7.89 µM | 5.12 µM | 3 µM | 3.21 µM | 3.8 µM | 8.81 µM | 4.89 µM | 4.11 µM | 2.57 µM | 2.15 µM | 2.08 µM | 0.611 µM | 0.456 µM | 1.39 µM | 0.845 µM | 1.61 µM | 1.88 µM | 1.74 µM |
| O=C1CC(=O)N(C(=O)c2nn(-c3ccc(Cl)cc3)cc2O)N1 | 12.7 µM | 4.08 µM | > 100 µM | > 41.7 µM | > 100 µM | 6.16 µM | 11.1 µM | > 100 µM | > 71.6 µM | > 100 µM | 0.639 µM | 0.751 µM | 0.136 µM | 0.403 µM | 0.493 µM | 1.31 µM | 0.37 µM | 0.494 µM | 0.431 µM | 0.529 µM |
| O=C(O)CCCSc1ccccc1 | > 100 µM | > 100 µM | > 100 µM | > 100 µM | > 100 µM | > 100 µM | > 100 µM | > 100 µM | > 100 µM | > 100 µM | – | – | – | – | – | – | – | – | – | – |
| Cc1c2oc3c(C)ccc(C(=O)NC4C(=O)NC(C(C)C)C(=O)N5CCCC5C(=O)N(C)CC(=O)N(C)C(C(C)O)C(=O)OC4C)c3nc-2c(C(=O)NC2C(=O)NC(C(C)C)C(=O)N3CCCC3C(=O)N(C)CC(=O)N(C)C(C(C)O)C(=O)OC2C)c(N)c1=O (stereo not given) (I: TVP[Sar][NMeT] / II: TVP[Sar][NMeT]; ester I:1-I:C, II:1-II:C; linker I:N-II:N via Actinocin(9to1); configuration not given here) | 13.1 µM and > 1 µM | 28.1 µM and > 1 µM | > 27.1 µM | 11.1 µM and > 1 µM | 18.3 µM and > 1 µM | 16.6 µM and > 1 µM | 10.6 µM and > 1 µM | 42.8 µM and > 1 µM | > 100 µM | 24.8 µM and > 1 µM | 3.64 µM and > 1 µM | 3 µM and > 1 µM | – | – | – | 2.23 µM and > 1 µM | – | – | 2.67 µM and > 1 µM | 2.99 µM and > 1 µM |
| C=C1C(=O)OC2C1CCC(C)C1C=CC(=O)C12C (stereo not given) | 6.75 µM | 4.85 µM | 15.4 µM | 10.4 µM | 10.2 µM | 3.37 µM | > 25.3 µM | 13.5 µM | 4.88 µM | 9.26 µM | – | – | – | – | – | – | – | – | – | – |
| COc1ccc(-c2oc(=O)ccc2-c2cc(OC)c(OC)c(OC)c2)cc1O | > 80.8 µM | 2.03 µM | > 29.4 µM | > 100 µM | > 100 µM | 3.55 µM | 6.19 µM | > 100 µM | > 100 µM | > 51.1 µM | 3.08 µM | 0.407 µM | 1.51 µM | 2.01 µM | 3.91 µM | 0.463 µM | 1.4 µM | 6.4 µM | 0.553 µM | 3.72 µM |
| C=C1C(C2(C)C(OC(C)=O)CC(=O)OC(C)(COC(C)=O)C2CC(=O)OC)C(OC=O)C(OC(=O)C(O)C(C)CC)C2(C)C(c3ccoc3)CC(=O)C12O (stereo not given) | 11.7 µM | 0.414 µM | > 100 µM | > 100 µM | > 100 µM | > 100 µM | > 100 µM | > 100 µM | > 100 µM | 18.1 µM | – | – | – | – | – | – | – | – | – | – |
| CC(=C/C=C/C=C(C)\C=C\C=C(\C)C(=O)O)/C=C/C=C(/C)C(=O)O | > 100 µM | > 100 µM | > 100 µM | > 100 µM | > 100 µM | > 100 µM | > 100 µM | > 100 µM | > 100 µM | > 100 µM | – | – | – | – | – | – | – | – | – | – |
| CS(=O)(=O)CCNCc1ccc(-c2ccc3ncnc(Nc4ccc(OCc5ccccc5)c(Br)c4)c3c2)o1 | > 25 µM | 15.9 µM | 15.9 µM | > 25 µM | > 25 µM | > 25 µM | > 24.1 µM | > 25 µM | 17.4 µM | 11.5 µM | 2.43 µM | 6.81 µM | 5.08 µM | 9.2 µM | 10.5 µM | 9.22 µM | 8.67 µM | 11.9 µM | 0.821 µM | 3.64 µM |
| COc1ccc(-c2cc(-c3ccc(Cl)cc3)nc(SCCCC(=O)NO)n2)cc1 | 1.29 µM | > 23 µM | 11.2 µM | > 22 µM | 7.06 µM | 2.11 µM | > 24.9 µM | > 20.5 µM | 7.46 µM | 1 µM | 0.284 µM | 1.65 µM | 2.08 µM | 0.796 µM | 1.43 µM | 0.406 µM | 0.771 µM | 0.654 µM | 0.801 µM | 0.237 µM |
| CC(=O)N1C/C(=C/c2ccc(Cl)cc2)C(=O)/C(=C/c2ccc(Cl)cc2)C1 | 8.5 µM | 3.95 µM | 5.24 µM | 7.58 µM | 3.67 µM | 1.79 µM | 0.463 µM | 2.24 µM | 3.24 µM | 2.35 µM | 2.53 µM | 0.924 µM | 1.43 µM | 0.249 µM | 1.5 µM | 0.583 µM | 0.0889 µM | 0.72 µM | 1.31 µM | 0.887 µM |
| C=C1C(=O)O[C@H]2[C@H]1CC/C(COC(=O)C(=O)c1cn(C)c3ccc(Cl)cc13)=C\CC[C@@]1(C)O[C@@H]21 | 4.54 µM | 4.09 µM | 17.6 µM | 4.17 µM | 3.05 µM | 1.03 µM | 1.19 µM | 4.71 µM | 3.27 µM | 2.17 µM | 1.71 µM | 1.25 µM | 3.14 µM | 0.494 µM | 1.39 µM | 0.315 µM | 0.306 µM | 1.39 µM | 1.46 µM | 0.817 µM |
| Cc1ccc(Cc2cnc(NC(=O)/C=C/c3cccc(C)c3)s2)cc1 | 11 µM | 0.559 µM | 5.86 µM | > 100 µM | > 50.1 µM | 0.725 µM | 10.5 µM | > 56 µM | > 100 µM | 9.54 µM | 0.0663 µM | 0.0933 µM | 0.212 µM | 0.261 µM | 0.322 µM | 0.0634 µM | 0.175 µM | 0.393 µM | 0.577 µM | 0.395 µM |
